Here are results for one compound from ChEMBL document CHEMBL1155171, “Synergistic activity of dispersin B and cefamandole nafate in inhibition of staphylococcal biofilm growth on polyurethanes” (Antimicrob Agents Chemother, 2007).

The source made the active and inactive calls. The rule behind the calls is not given here.

Assay [1] relates to Staphylococcus epidermidis. Put plainly: Antibacterial activity against oxacillin-sensitive Staphylococcus epidermidis ATCC 12228 assessed as reduction in number of viable biofilm associated bacteria in presence of dispersin B. Format: functional, organism-based.
Assay [2] has as its system Staphylococcus epidermidis. Put plainly: Antibacterial activity against oxacillin-sensitive Staphylococcus epidermidis ATCC 12228 at 0.25 ug/ml after 18 hrs. The format is functional, organism-based.

As for `Cn1nnnc1SCC1=C(C(=O)O)N2C(=O)[C@@H](NC(=O)[C@H](OC=O)c3ccccc3)[C@H]2SC1`, the outcome in assay [1] and in assay [2] was Active.
